Experimental data from patent US7662789B2, “Peptide substance restoring myocardium function” (“Access Bioscience” CJSC, priority 2004, dated 2010).
Where a SMILES comes first, the peptide text is derived from it.

Assays:
[1] = test system: experimental myocardium infarction in rats; test: Experimental myocardium infarction by left coronary artery vasoligation in rats; assay type: in vivo; settings: for Necrosis zone size, % of ventricle mass: 0.05 μg per animal i.p. 1, 3, 5 h after occlusion; for Death rate: 20 animals per group
Protocol: The experiment was conducted on 40 white mongrel rats each weighing 180-200 g. The animals were randomly subdivided into two groups, 20 animals in each. Myocardium infarction (MI) was induced by vasoligation of the left coronary artery. Ala-Glu-Asp-Arg tetrapeptide was administered to the animals intraperitoneally in the dose of 0.05 μg per animal in sterile 0.9% NaCl solution three times—in 1, 3 and 5 hours after coronary occlusion. Rats were decapitated in 6 and 24 hours after the surgery. Animals subjected to the surgery, which intraperitoneally received 0.9% NaCl solution, served as the control. MI zone size was identified gravimetrically. Myocardium fragments were fixed for light and electronic microscopy, part of the material was frozen in liquid nitrogen for biochemical studies.

[2] = test system: isolated guinea pig heart; test: Isolated guinea pig heart, Langendorf perfusion, 30 min total ischemia and re-perfusion; design: species or system guinea pigs
Protocol: The experiment was conducted under conditions of perfusion in isolated hearts of 60 male guinea pigs, by Langendorf. The animals were randomly subdivided into several groups, each consisting of 6 animals. Total cardiac ischemia was induced by means of fully tightening the perfusional solution hose for 30 minutes. Then re-perfusion was performed under the same conditions as before ischemia (control group). In experimental animals perfusion was performed together with Ala-Glu-Asp-Arg (SEQ ID NO:1) tetrapeptide in the concentrations of 0.002-0.05 μg/ml. Mechanical contractions were registered, bioptates, weighing approximately 10 mg, were several times taken from the top of the heart, then the content of malon dialdegide (MDA) was identified in them. The hearts in the end of the experiment and partially before ischemia were frozen in liquid nitrogen for ATP, ADP and AMP content identification.

succinate dehydrogenase = settings: myocardium slices from different animals
isolated rat heart = test: Contractive ability of isolated rat heart after ischemia; settings: 0.005 μg/ml; 12 rat hearts; severe stimulation 5 Hz
isolated cardiomyocytes = test: Cardiomyocyte bioenergetics, polarographic oxygen consumption; assay type: cell-based, rats
Protocol: Cardiomyocytes were extracted from the cardiac muscle of pubertal rats by Vahouny. Oxygen consumption by isolated cardiomyocytes was registered polarographically at the temperature of 30° C. Part of cardiomyocytes suspension was oxygenated by saturation with carbogen for 1-3 hours at room temperature. The other part of suspension was not oxygenated (conditions of moderate hypoxia). […] The tetrapeptide was introduced into the medium in the concentration of 10 ng/ml.

male guinea pigs = test: Chronic toxicity, 6 months intramuscular in guinea pigs
Protocol: Common toxicity of Ala-Glu-Asp-Arg (SEQ ID NO:1) tetrapeptide was studied in compliance with the requirements stated in “Manual for experimental (pre-clinical) study of new pharmaceutical substances” (2000): acute toxicity in case of single administration of the substance, as well as sub-acute and chronic toxicity in case of long-term administration of the tetrapeptide.
The studies of chronic toxicity were conducted for 6 months, basing on the duration of the recommended clinical administration of the preparation, on 96 male guinea pigs with body weight of 300-340 g. The experimental animals received the tetrapeptide daily, once a day, intramuscularly, for 6 months in the doses of 1 μg/kg, 0.1 mg/kg and 1 mg/kg in 0.5 ml of 0.9% NaCl solution. The control animals received 0.9% NaCl solution in the same volume and by the same schedule. Common methods were used for the identification of the quantity of erythrocytes, hemoglobin, reticulocytes, thrombocytes, leukocytes, as well as of the leukocyte formula, erythrocyte sedimentation rate (ESR) and erythrocyte resistance in the peripheric blood of the animals. Alongside with this general protein content in the blood serum was estimated by Lowry's method, as well as of potassium and sodium using the method of plasma spectrophotometry. After the completion of the experiment the pathomorphological study of the brain and spinal cord, spinal cord ganglia, thyroid gland, parathyroid glands, adrenal glands, testis, pituitary gland, heart, lungs, aorta, liver, kidney, urinary bladder, pancreas, stomach, small intestine, large intestine, thymus, spleen, lymph nodes and bone marrow was conducted.

[3] = 0.05 μg per animal i.p., 6 hours
[4] = 0.05 μg per animal i.p., 24 hours
[5] = 0.002 μg/ml, re-perfusion 15 min
[6] = 0.002 μg/ml, re-perfusion 30 min
[7] = 0.005 μg/ml, re-perfusion 15 min
[8] = 0.005 μg/ml, re-perfusion 30 min
[9] = 0.01 μg/ml, re-perfusion 15 min
[10] = 0.01 μg/ml, re-perfusion 30 min
[11] = 0.05 μg/ml, re-perfusion 15 min
[12] = 0.05 μg/ml, re-perfusion 30 min

SMILES: C[C@H](N)C(=O)N[C@@H](CCC(=O)O)C(=O)N[C@@H](CC(=O)O)C(=O)N[C@@H](CCCNC(=N)N)C(=O)O [Tetrapeptide, L-alanyl-L-glutamyl-L-aspartyl-L-arginine] (H-AEDR-OH)
- Necrosis zone size, % of ventricle mass ([1]; 6 hours): 38.1 ± 1.8 % of ventricle mass
- Necrosis zone size, % of ventricle mass ([1]; 24 hours): 49.6 ± 1.6 % of ventricle mass
- Content in the blood serum: CPK [1, 3]: 961 ± 52 nmole/s · 1
- Content in the blood serum: LDH [1, 3]: 309 ± 16 nmole/s · 1
- Content in the blood serum: glucose [1, 3]: 3.12 ± 0.09 mmol/L
- Glycogen content in the myocardium [1, 3]: 1.05 ± 0.12 g/kg of the tissue
- Death rate [1, 3]: 2
- Content in the blood serum: CPK [1, 4]: 923 ± 38 nmole/s · 1
- Content in the blood serum: LDH [1, 4]: 201 ± 15 nmole/s · 1
- Content in the blood serum: glucose [1, 4]: 3.01 ± 0.11 mmol/L
- Glycogen content in the myocardium [1, 4]: 1.18 ± 0.12 g/kg of the tissue
- Death rate [1, 4]: 1
- Mortality rate during the first 24 hours after infarction ([1]; 0.05 μg per animal i.p., control 45%): 15%
- Decrease of glucose content in the blood ([1]; acute myocardium ischemia, versus control): ~1.5 times
- Coefficient of mitochondria energy efficiency ([1]; electronograms, 24 hours since beginning of MI, control 41.5±2.4): 93.2±2.3%
- Amplitude of contractions, % of initial ([2]; 0.002 μg/ml, before ischemia): 100 % of initial
- MDA ([2]; 0.002 μg/ml, before ischemia): 225 ± 23 nmole/g of tissue
- Amplitude of contractions, % of initial [2, 5]: 70 ± 13 % of initial
- MDA [2, 5]: 216 ± 5 nmole/g of tissue
- Amplitude of contractions, % of initial [2, 6]: 81 ± 16 % of initial
- MDA [2, 6]: 220 ± 12 nmole/g of tissue
- Amplitude of contractions, % of initial ([2]; 0.005 μg/ml, before ischemia): 100 % of initial
- MDA ([2]; 0.005 μg/ml, before ischemia): 168 ± 25 nmole/g of tissue
- Amplitude of contractions, % of initial [2, 7]: 89 ± 6 % of initial
- MDA [2, 7]: 231 ± 7 nmole/g of tissue
- Amplitude of contractions, % of initial [2, 8]: 93 ± 5 % of initial
- MDA [2, 8]: 186 ± 10 nmole/g of tissue
- Amplitude of contractions, % of initial ([2]; 0.01 μg/ml, before ischemia): 100 % of initial
- MDA ([2]; 0.01 μg/ml, before ischemia): 203 ± 18 nmole/g of tissue
- Amplitude of contractions, % of initial [2, 9]: 61 ± 4 % of initial
- MDA [2, 9]: 248 ± 8 nmole/g of tissue
- Amplitude of contractions, % of initial [2, 10]: 64 ± 3 % of initial
- MDA [2, 10]: 220 ± 9 nmole/g of tissue
- Amplitude of contractions, % of initial ([2]; 0.05 μg/ml, before ischemia): 100 % of initial
- Energy charge ([2]; 0.05 μg/ml, before ischemia): 7.78 ± 0.14 μmole of adenosine phosphates/g of tissue
- MDA ([2]; 0.05 μg/ml, before ischemia): 156 ± 28 nmole/g of tissue
- Amplitude of contractions, % of initial [2, 11]: 38 ± 13 % of initial
- MDA [2, 11]: 264 ± 13 nmole/g of tissue
- Amplitude of contractions, % of initial [2, 12]: 32 ± 9 % of initial
- Energy charge [2, 12]: 2.98 ± 0.35 μmole of adenosine phosphates/g of tissue
- MDA [2, 12]: 252 ± 11 nmole/g of tissue
- Energy charge ([2]; 0.002-0.005 μg/ml, before ischemia): 7.68 ± 0.21 μmole of adenosine phosphates/g of tissue
- Energy charge ([2]; 0.002-0.005 μg/ml, re-perfusion 30 min): 6.01 ± 0.23 μmole of adenosine phosphates/g of tissue
- Influence on the status of the normal heart ([2]; perfusion without ischemia): does not influence the status of the normal heart
- Activity of succinate dehydrogenase (succinate dehydrogenase): inhibiting effect
- Protective effect when added into the perfusate before induced ischemia (isolated rat heart): restrained the growth of contracture during the period of ischemia
- Coefficient of breath stimulation (breath rate with succinate to initial breath rate) (isolated cardiomyocytes; 10 ng/ml, hypoxia, succinate 1×10^−4 M, without tetrapeptide 7.35±0.26): 1.97±0.26
- NAD.H2 oxidation by cardiomyocytes (isolated cardiomyocytes; tetrapeptide in the medium): increases NAD.H2 oxidation by cardiomyocytes
- Basophils (male guinea pigs; 1 μg/kg, 3 months): 0.69 ± 0.05%
- ESR (male guinea pigs; 1 μg/kg, 3 months): 1.87 ± 0.07 mm/hour
- Eosinophils (male guinea pigs; 1 μg/kg, 3 months): 0.64 ± 0.04%
- Erythrocyte resistance, minimum (male guinea pigs; 1 μg/kg, 3 months): 0.33 ± 0.02 % NaCl
- Erythrocytes (male guinea pigs; 1 μg/kg, 3 months): 5.4 ± 0.2 ×10^12/l
- General protein in the blood serum (male guinea pigs; 1 μg/kg, 3 months): 72.6 ± 3.3 g/L
- Hemoglobin (male guinea pigs; 1 μg/kg, 3 months): 13.8 ± 1.2
- Leukocytes (male guinea pigs; 1 μg/kg, 3 months): 11.2 ± 0.8 ×10^9/l
- Lymphocytes (male guinea pigs; 1 μg/kg, 3 months): 50.7 ± 2.4%
- Monocytes (male guinea pigs; 1 μg/kg, 3 months): 2.4 ± 0.03%
- Potassium in the blood serum (male guinea pigs; 1 μg/kg, 3 months): 5.3 ± 1.8 mmol/L
- Reticulocytes (male guinea pigs; 1 μg/kg, 3 months): 1.2 ± 0.07%
- Segmented neutrophils (male guinea pigs; 1 μg/kg, 3 months): 44.9 ± 2.5%
- Sodium in the blood serum (male guinea pigs; 1 μg/kg, 3 months): 154.8 ± 6.8 mmol/L
- Stab neutrophils (male guinea pigs; 1 μg/kg, 3 months): 0.27 ± 0.07%
- Thrombocytes (male guinea pigs; 1 μg/kg, 3 months): 143.6 ± 8.4 ×10^9/l
- Basophils (male guinea pigs; 1 μg/kg, 6 months): 0.71 ± 0.05%
- ESR (male guinea pigs; 1 μg/kg, 6 months): 2.05 ± 0.04 mm/hour
- Eosinophils (male guinea pigs; 1 μg/kg, 6 months): 0.75 ± 0.08%
- Erythrocyte resistance, maximum (male guinea pigs; 1 μg/kg, 6 months): 0.44 ± 0.04 % NaCl
- Erythrocyte resistance, minimum (male guinea pigs; 1 μg/kg, 6 months): 0.35 ± 0.05 % NaCl
- Erythrocytes (male guinea pigs; 1 μg/kg, 6 months): 5.2 ± 0.4 ×10^12/l
- General protein in the blood serum (male guinea pigs; 1 μg/kg, 6 months): 73.1 ± 3.6 g/L
- Hemoglobin (male guinea pigs; 1 μg/kg, 6 months): 14.2 ± 0.6
- Leukocytes (male guinea pigs; 1 μg/kg, 6 months): 11.9 ± 0.5 ×10^9/l
- Lymphocytes (male guinea pigs; 1 μg/kg, 6 months): 52.7 ± 2.2%
- Monocytes (male guinea pigs; 1 μg/kg, 6 months): 2.5 ± 0.05%
- Potassium in the blood serum (male guinea pigs; 1 μg/kg, 6 months): 5.4 ± 2.2 mmol/L
- Reticulocytes (male guinea pigs; 1 μg/kg, 6 months): 1.3 ± 0.08%
- Segmented neutrophils (male guinea pigs; 1 μg/kg, 6 months): 43.4 ± 3.2%
- Sodium in the blood serum (male guinea pigs; 1 μg/kg, 6 months): 154.6 ± 6.9 mmol/L
- Stab neutrophils (male guinea pigs; 1 μg/kg, 6 months): 0.36 ± 0.05%
- Thrombocytes (male guinea pigs; 1 μg/kg, 6 months): 144.9 ± 9.8 ×10^9/l
- Chronic toxicity, side effects (male guinea pigs; 6 months i.m. daily, 1 μg/kg, 0.1 mg/kg, 1 mg/kg, 100-1000 times the therapeutic doses): absence of side effects
- General status, blood indices, internal organs, cardiovascular, respiratory, liver and kidney functions (male guinea pigs; long-term administration): no pathologic changes
